Publication PMC11527646, “Pharmacological blockade of the mast cell MRGPRX2 receptor supports investigation of its relevance in skin disorders” (Frontiers in Immunology, 2024)
Where two headings read alike, the source gives them in different places.

Legend:
Assay in all cases: GPCR selectivity cellular assay
Format in all cases: cell-based
5-HT1B receptor (HTR1B) = molecular target: T1, 5-HT1B receptor (HTR1B) (Homo sapiens, UniProt P28222); details: Agonism; read-out: Agonist Activity (EC50)
T1 construct: expressed in transfected cells
T1 sequence (P28222 whole entry): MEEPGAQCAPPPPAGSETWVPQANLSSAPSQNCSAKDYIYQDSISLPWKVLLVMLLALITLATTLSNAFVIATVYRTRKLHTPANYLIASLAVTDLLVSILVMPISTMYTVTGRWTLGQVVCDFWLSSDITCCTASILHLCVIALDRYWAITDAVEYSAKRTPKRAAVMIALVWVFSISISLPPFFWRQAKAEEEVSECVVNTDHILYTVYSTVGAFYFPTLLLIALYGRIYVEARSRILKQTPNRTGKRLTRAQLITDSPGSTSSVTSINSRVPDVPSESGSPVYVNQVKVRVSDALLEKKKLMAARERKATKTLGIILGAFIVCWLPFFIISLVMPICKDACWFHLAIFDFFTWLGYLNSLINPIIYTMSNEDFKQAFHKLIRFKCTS
Method: (§1) tagonists, with little activity detected on other GPCRs. Antagonist and/or agonist activities of the two compounds were determined in cellular assays for 20 human G-protein coupled receptors (GPCR) beside MRGPRX2. Recombinant over-expression systems in mammalian cells were used for all assays listed in this table. […]
(§2) reported as ‘>’ the highest compound concentration allowed in that assay.
(§3) GPCR Target Name Gene symbol Mode of Activity Compound-A Compound-B […]
(§4) Agonist Activity (EC50 ) or Antagonist Activity (IC50 ), nM […]

5-HT2A receptor (HTR2A) = 5-HT2A receptor (HTR2A) (Homo sapiens, UniProt P28223)
5-HT2A receptor (HTR2A), sequence (P28223 whole entry): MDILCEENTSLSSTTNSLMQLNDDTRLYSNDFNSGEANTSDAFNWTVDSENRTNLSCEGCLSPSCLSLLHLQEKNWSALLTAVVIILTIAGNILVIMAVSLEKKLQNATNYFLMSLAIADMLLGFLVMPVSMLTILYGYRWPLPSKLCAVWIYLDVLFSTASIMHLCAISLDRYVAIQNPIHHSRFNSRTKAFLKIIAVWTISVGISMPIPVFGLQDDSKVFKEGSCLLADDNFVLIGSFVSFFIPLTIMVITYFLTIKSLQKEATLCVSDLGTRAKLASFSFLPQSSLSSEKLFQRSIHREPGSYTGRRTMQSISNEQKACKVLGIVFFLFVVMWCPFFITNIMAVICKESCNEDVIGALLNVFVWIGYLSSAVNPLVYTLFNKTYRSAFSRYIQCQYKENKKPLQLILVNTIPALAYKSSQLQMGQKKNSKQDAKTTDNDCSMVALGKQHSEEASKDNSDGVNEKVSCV
Method: as §1, §2, §3, §4

5-HT2B receptor (HTR2B) = 5-HT2B receptor (HTR2B) (Homo sapiens, UniProt P41595); details: Agonism; read-out: Agonist Activity (EC50)
5-HT2B receptor (HTR2B), sequence (P41595 whole entry): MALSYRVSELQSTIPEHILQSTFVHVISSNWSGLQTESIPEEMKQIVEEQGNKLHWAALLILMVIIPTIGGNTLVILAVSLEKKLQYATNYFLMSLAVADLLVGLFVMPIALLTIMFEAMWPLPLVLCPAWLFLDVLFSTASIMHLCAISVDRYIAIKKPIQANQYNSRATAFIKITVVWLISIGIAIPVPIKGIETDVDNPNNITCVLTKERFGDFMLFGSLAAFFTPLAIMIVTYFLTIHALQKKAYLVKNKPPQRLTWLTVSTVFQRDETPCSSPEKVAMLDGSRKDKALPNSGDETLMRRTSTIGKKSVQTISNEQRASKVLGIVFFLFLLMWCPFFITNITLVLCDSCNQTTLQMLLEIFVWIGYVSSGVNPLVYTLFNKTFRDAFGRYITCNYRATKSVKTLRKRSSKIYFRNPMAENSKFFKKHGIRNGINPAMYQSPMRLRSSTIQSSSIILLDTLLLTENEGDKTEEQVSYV
Method: as §1, §2, §3, §4

5-HT2C receptor (HTR2C) = molecular target: T2, 5-HT2C receptor (HTR2C) (Homo sapiens, UniProt P28335); details: for EC50: Agonism, read-out: Agonist Activity (EC50); for IC50: Antagonism, read-out: Antagonist Activity (IC50)
T2 sequence (P28335 33-458): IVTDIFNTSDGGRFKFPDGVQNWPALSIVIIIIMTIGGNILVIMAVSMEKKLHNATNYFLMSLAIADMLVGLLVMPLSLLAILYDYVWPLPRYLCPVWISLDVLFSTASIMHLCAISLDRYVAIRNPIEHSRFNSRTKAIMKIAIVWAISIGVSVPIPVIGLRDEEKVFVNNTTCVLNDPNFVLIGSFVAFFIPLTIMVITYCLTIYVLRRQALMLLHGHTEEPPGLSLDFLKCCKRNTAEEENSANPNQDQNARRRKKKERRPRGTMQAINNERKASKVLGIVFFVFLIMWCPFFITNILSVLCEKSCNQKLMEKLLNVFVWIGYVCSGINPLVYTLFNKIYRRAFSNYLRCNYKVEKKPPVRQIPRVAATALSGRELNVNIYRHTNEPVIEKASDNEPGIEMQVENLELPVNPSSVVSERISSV
Method: as §1, §2, §3, §4

CB1 receptor (CNR1) = molecular target: T3, CB1 receptor (CNR1) (Homo sapiens, UniProt P21554)
T3 construct: expressed in transfected cells
T3 sequence (P21554 whole entry): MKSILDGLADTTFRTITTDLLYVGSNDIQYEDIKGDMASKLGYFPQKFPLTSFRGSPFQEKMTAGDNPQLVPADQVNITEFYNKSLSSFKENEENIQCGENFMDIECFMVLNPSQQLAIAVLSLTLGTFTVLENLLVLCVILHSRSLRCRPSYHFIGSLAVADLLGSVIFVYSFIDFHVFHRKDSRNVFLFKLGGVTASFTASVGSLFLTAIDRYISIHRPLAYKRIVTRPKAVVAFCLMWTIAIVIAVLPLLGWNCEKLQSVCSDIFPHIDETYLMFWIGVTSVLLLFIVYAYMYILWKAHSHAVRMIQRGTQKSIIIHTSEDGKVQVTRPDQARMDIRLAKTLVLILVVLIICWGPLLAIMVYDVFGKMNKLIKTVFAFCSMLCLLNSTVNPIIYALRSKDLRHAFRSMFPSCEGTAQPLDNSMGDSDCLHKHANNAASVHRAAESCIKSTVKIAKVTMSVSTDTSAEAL
Method: as §1, §2, §3, §4

D1 receptor (DRD1) = molecular target: T4, D1 receptor (DRD1) (Homo sapiens, UniProt P21728); details: Antagonism; read-out: Antagonist Activity (IC50)
T4 construct: expressed in transfected cells
T4 sequence (P21728 whole entry): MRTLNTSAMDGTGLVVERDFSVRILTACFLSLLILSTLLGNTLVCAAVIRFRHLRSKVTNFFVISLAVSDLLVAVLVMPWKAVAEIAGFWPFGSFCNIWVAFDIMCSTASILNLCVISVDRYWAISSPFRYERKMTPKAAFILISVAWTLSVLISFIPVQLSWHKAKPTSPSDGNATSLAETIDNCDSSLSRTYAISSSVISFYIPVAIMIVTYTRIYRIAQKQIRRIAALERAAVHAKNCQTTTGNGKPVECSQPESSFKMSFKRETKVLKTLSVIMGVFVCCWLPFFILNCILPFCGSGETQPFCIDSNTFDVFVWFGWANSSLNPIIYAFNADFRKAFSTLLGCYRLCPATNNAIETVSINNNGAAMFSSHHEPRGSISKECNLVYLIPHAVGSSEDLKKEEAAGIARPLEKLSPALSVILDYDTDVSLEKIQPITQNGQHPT
Method: as §1, §2, §3, §4

H1 receptor (HRH1) = molecular target: T5, H1 receptor (HRH1) (Homo sapiens, UniProt P35367); details: Antagonism; read-out: Antagonist Activity (IC50)
T5 construct: expressed in transfected cells
T5 sequence (P35367 whole entry): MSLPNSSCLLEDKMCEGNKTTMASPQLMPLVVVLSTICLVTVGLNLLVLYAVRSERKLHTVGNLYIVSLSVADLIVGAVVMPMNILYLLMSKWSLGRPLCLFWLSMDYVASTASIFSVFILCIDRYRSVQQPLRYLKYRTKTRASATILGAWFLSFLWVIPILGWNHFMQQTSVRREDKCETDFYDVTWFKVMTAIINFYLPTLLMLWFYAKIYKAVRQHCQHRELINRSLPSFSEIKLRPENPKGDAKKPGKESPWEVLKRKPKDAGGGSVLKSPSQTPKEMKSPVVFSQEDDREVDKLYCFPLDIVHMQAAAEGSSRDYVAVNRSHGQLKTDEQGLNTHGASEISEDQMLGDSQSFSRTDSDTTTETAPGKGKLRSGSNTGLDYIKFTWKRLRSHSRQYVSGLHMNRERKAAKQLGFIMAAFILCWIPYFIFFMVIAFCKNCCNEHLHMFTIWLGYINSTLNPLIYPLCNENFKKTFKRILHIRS
Method: as §1, §2, §3, §4

M1 receptor (CHRM1) = molecular target: T6, M1 receptor (CHRM1) (Homo sapiens, UniProt P11229); details: for EC50: Agonism, read-out: Agonist Activity (EC50); for IC50: Antagonism, read-out: Antagonist Activity (IC50)
T6 construct: expressed in transfected cells
T6 sequence (P11229 1-460): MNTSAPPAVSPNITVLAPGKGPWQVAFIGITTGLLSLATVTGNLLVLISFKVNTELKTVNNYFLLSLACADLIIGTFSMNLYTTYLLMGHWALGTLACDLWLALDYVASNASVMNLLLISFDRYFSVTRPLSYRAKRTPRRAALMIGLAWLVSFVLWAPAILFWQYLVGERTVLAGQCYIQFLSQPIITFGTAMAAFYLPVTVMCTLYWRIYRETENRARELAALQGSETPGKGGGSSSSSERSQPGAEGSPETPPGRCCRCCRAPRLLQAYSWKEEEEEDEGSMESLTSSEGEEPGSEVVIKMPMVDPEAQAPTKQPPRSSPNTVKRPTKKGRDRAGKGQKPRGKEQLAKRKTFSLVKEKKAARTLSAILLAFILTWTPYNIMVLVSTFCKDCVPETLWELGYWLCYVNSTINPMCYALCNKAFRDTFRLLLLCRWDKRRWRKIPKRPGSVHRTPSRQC
Method: as §1, §2, §3, §4

M2 receptor (CHRM2) = molecular target: T7, M2 receptor (CHRM2) (Homo sapiens, UniProt P08172); details: for EC50: Agonism, read-out: Agonist Activity (EC50); for IC50: Antagonism, read-out: Antagonist Activity (IC50)
T7 construct: expressed in transfected cells
T7 sequence (P08172 1-466): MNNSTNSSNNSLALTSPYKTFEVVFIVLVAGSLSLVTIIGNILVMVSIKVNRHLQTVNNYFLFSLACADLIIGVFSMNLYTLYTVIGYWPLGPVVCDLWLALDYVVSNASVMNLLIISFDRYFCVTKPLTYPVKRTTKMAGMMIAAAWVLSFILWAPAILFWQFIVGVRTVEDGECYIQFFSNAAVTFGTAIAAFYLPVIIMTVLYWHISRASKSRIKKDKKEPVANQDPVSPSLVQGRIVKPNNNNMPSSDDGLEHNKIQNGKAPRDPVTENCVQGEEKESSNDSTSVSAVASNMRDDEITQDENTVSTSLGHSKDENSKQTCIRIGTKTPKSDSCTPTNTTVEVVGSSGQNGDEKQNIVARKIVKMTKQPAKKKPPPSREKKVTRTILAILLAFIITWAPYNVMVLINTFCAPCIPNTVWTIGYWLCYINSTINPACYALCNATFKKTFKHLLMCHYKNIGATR
Method: as §1, §2, §3, §4

NK1 receptor (TACR1) = NK1 receptor (TACR1) (Homo sapiens, UniProt P25103); details: Antagonism; read-out: Antagonist Activity (IC50)
NK1 receptor (TACR1), sequence (P25103 whole entry): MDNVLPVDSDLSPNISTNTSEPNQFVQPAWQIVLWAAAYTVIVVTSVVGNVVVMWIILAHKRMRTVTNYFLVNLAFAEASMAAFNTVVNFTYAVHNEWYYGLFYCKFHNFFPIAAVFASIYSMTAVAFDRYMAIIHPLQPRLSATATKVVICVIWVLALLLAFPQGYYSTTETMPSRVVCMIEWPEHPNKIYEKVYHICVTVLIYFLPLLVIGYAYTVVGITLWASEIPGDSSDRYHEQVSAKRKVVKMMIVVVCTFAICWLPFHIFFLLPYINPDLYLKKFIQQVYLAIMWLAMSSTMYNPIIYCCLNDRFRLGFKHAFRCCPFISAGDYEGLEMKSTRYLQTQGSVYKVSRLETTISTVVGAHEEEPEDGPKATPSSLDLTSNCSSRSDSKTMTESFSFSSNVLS
Method: as §1, §2, §3, §4

V1A receptor (AVPR1A) = molecular target: T8, V1A receptor (AVPR1A) (Homo sapiens, UniProt P37288); details: Antagonism; read-out: Antagonist Activity (IC50)
T8 construct: expressed in transfected cells
T8 sequence (P37288 whole entry): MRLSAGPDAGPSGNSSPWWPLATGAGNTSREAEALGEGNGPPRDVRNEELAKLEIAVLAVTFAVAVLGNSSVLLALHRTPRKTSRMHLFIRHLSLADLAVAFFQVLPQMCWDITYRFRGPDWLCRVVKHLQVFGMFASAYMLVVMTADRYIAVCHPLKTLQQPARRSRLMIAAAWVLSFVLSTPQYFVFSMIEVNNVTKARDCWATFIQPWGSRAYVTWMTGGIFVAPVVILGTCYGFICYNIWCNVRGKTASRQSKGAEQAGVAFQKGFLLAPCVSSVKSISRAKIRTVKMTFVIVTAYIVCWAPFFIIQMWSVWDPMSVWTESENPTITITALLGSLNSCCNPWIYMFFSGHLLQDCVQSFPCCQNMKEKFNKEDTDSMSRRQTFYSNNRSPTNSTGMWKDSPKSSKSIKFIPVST
Method: as §1, §2, §3, §4

[1] = molecular target: T9, a1B-Adrenoreceptor (ADRA1B) (Homo sapiens, UniProt P35368); details: Antagonism; read-out: Antagonist Activity (IC50)
T9 construct: expressed in transfected cells
T9 sequence (P35368 whole entry): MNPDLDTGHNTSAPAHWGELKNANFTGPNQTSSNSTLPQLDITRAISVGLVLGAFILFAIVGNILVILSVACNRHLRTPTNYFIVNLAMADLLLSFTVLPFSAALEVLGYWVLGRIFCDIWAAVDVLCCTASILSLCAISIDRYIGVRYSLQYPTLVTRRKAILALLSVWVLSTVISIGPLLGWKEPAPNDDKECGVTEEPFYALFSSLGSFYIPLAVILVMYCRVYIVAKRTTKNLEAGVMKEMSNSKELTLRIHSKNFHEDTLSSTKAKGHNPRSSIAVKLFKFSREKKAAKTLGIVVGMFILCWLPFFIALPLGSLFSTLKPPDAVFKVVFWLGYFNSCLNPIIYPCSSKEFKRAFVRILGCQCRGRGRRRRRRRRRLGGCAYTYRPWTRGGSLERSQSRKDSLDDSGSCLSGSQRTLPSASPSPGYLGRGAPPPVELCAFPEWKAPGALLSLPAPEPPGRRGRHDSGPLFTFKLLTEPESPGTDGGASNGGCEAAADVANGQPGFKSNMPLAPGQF
Method: as §1, §2, §3, §4

k-Receptor (OPRK1) = k-Receptor (OPRK1) (Homo sapiens, UniProt P41145)
k-Receptor (OPRK1), sequence (P41145 whole entry): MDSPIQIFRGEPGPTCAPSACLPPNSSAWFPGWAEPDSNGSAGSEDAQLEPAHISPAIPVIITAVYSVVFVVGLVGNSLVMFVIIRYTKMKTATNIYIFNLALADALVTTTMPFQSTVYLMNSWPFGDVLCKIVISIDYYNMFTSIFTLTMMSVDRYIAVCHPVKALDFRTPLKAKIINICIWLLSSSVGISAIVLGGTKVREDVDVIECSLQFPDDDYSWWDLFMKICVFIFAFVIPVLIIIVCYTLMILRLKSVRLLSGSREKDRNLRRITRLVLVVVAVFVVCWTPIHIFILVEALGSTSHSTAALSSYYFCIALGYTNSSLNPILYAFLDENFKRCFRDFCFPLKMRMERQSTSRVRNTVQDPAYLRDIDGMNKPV
Method: as §1, §2, §3, §4

MRGPRX1 = molecular target: T10, MRGPRX1 (Homo sapiens, UniProt Q96LB2); details: for EC50: Agonism, read-out: Agonist Activity (EC50); for IC50: Antagonism, read-out: Antagonist Activity (IC50)
T10 construct: expressed in transfected cells
T10 sequence (Q96LB2 whole entry): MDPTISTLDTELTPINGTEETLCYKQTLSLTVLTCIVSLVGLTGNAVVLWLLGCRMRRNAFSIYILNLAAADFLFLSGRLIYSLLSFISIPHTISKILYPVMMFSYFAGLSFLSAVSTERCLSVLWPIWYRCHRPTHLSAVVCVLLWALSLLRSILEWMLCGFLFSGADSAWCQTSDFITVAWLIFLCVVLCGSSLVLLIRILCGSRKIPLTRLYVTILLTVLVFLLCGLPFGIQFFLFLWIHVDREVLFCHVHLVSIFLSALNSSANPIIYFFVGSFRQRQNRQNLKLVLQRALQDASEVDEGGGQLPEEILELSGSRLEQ
Method: Antagonist and/or agonist activities of the two compounds were determined in cellular assays for 20 human G-protein coupled receptors (GPCR) beside MRGPRX2. Recombinant over-expression systems in mammalian cells were used for all assays listed in this table. […]
reported as ‘>’ the highest compound concentration allowed in that assay. […]
Agonist Activity (EC50 ) or Antagonist Activity (IC50 ), nM

[2] = Agonism, read-out: Agonist Activity (EC50)

In the case of CC1(C)C(C(=O)Nc2ccccn2)C1(C)C [Compound A], the EC50 (5-HT1B receptor (HTR1B)) is reported as 11.9 µM, the EC50 (5-HT2A receptor (HTR2A)) is reported as > 100 µM and the IC50 (5-HT2A receptor (HTR2A)) is reported as 41.4 µM. For the same compound, the EC50 (5-HT2B receptor (HTR2B)) was 27.1 µM, the EC50 (5-HT2C receptor (HTR2C)) was > 100 µM and the IC50 (5-HT2C receptor (HTR2C)) was > 100 µM. For the same compound, the EC50 (CB1 receptor (CNR1)) was > 25 µM, the IC50 (D1 receptor (DRD1)) was > 100 µM and the IC50 (H1 receptor (HRH1)) was > 25 µM. For the same compound, the EC50 (M1 receptor (CHRM1)) was > 50 µM, the IC50 (M1 receptor (CHRM1)) was > 50 µM and the EC50 (M2 receptor (CHRM2)) was > 50 µM. The IC50 (M2 receptor (CHRM2)) was > 50 µM, the IC50 (NK1 receptor (TACR1)) was > 25 µM and the IC50 (V1A receptor (AVPR1A)) was > 50 µM. For the same compound, the IC50 [1] was > 25 µM, the EC50 (k-Receptor (OPRK1)) was > 100 µM and the EC50 (MRGPRX1) was > 100 µM. For the same compound, the IC50 (MRGPRX1) was > 100 µM.

For C[C@@H](C(=O)Nc1cnc(Oc2ccc(F)cc2F)cn1)N1CCC(F)(F)[C@@H](c2cc[n+]([O-])cc2)C1 [Compound B], the EC50 (5-HT1B receptor (HTR1B)) was > 50 µM, the EC50 (5-HT2A receptor (HTR2A); [2]) was > 100 µM and the IC50 (5-HT2A receptor (HTR2A); Antagonism, read-out: Antagonist Activity (IC50)) was > 100 µM. The EC50 (5-HT2B receptor (HTR2B)) was > 100 µM, the EC50 (5-HT2C receptor (HTR2C)) was > 100 µM and the IC50 (5-HT2C receptor (HTR2C)) was > 50 µM. The EC50 (CB1 receptor (CNR1); [2]) was > 25 µM, the IC50 (D1 receptor (DRD1)) was > 100 µM and the IC50 (H1 receptor (HRH1)) was > 25 µM. For the same compound, the EC50 (M1 receptor (CHRM1)) was > 50 µM, the IC50 (M1 receptor (CHRM1)) was > 50 µM and the EC50 (M2 receptor (CHRM2)) was > 50 µM. For the same compound, the IC50 (M2 receptor (CHRM2)) was > 50 µM, the IC50 (NK1 receptor (TACR1)) was > 25 µM and the IC50 (V1A receptor (AVPR1A)) was > 50 µM. For the same compound, the IC50 [1] was > 25 µM, the EC50 (k-Receptor (OPRK1); [2]) was > 100 µM and the EC50 (MRGPRX1) was > 100 µM. The IC50 (MRGPRX1) was > 100 µM.
